Test results taken from ChEMBL document CHEMBL5370537, “Aporphines: A privileged scaffold in CNS drug discovery” (Eur J Med Chem, 2023).

Key:
[1] = Inhibition of neuronal excitability in mouse Primary neocortical neuron assessed as reduction in SCO amplitude measured after 45 mins by FLIPR assay; assay type: functional, cell-based; conditions: 0.75 h
[2] = Inhibition of neuronal excitability in mouse Primary neocortical neuron assessed as reduction in SCO frequency measured after 45 mins by FLIPR assay; assay type: functional, cell-based; conditions: 0.75 h
[3] = biological target: 5-hydroxytryptamine receptor 7 (Rattus norvegicus, UniProt P32305); experiment: Displacement of [3H]5-HT from rat 5-HT7 assessed as inhibition constant
Chain of 5-hydroxytryptamine receptor 7 (P32305 whole entry): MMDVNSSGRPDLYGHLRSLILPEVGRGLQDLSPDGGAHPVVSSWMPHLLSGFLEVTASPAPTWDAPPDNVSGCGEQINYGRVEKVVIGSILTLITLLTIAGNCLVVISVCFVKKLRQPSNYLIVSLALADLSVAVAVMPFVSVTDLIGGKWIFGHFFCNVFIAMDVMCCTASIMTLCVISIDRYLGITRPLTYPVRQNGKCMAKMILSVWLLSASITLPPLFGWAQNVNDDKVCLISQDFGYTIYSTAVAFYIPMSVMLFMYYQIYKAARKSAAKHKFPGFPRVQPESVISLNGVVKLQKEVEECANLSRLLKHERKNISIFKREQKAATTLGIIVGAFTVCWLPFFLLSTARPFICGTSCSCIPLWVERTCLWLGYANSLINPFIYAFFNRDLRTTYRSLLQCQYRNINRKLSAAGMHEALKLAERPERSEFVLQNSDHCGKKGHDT

[4] = biological target: T1, 5-hydroxytryptamine receptor 1A (Homo sapiens, UniProt P08908); experiment: Displacement of [3H]8-OH-DPAT from human 5-HT1A assessed as inhibition constant
T1 sequence (P08908 whole entry): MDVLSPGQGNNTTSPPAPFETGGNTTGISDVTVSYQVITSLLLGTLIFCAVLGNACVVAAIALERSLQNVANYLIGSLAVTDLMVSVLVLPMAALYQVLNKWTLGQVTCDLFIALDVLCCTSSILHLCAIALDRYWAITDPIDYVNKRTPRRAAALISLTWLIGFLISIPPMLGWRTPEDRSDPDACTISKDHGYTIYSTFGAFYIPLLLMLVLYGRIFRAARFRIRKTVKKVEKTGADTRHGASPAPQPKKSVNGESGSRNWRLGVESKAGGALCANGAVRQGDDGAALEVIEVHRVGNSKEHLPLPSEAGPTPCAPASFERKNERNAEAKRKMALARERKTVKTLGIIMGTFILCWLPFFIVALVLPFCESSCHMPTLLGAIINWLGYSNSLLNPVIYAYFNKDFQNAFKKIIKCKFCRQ

Compound	IC50 [1] [µM]	IC50 [2] [µM]	Ki [3] [µM]	Ki [4] [µM]
COc1ccc2c(c1O)-c1c3c(cc4c1[C@H](C2)N(C)CC4)OCO3 [(S)-BULBOCAPNINE]	12.9	11.6		
CN1CCc2ccc3c4c2[C@H]1Cc1cccc(c1-4)[C@]3(C)O			0.0069	0.0615
